Entries after “also recorded” stand apart in the source; their conditions may differ. Where a SMILES comes first, the peptide text is derived from it. The star is where a group is joined. Cbz = O=C(OCc1ccccc1)*; OtBu = CC(C)(C)O*
What was measured:
[1] = system: incisional wounds of Sprague-Dawley rats; assay: Incisional wound healing model: tensometry and wound thickness; format: in vivo
Source text: (§1) Using a standard incisional wound healing model, two 6 cm linear incisions were made through the panniculus carnosum on the dorsal aspect of 10 to 12 week old male Sprague-Dawley rats 1 centimeter on either side of midline running cephalid to caudal using a prefabricated template. Three surgical clips were used to close the incision and serve as guides for sectioning on harvest day.
(§2) Rats were randomly assigned to 1 of 3 treatment groups, indentified by the treatment administered to the wound located on the left. All wounds located on the right, regardless of treatment group, received vehicle (100% DMSO) as a control. […] Treatment was administered by applying 100 micro liters into (at time of closure) or onto the wound every 24 hours for the first 48 hours beginning at the time of wound closure, totaling 3 doses per wound.
(§3) On days 7, 14 and 28 post-wounding, the rats were euthanized and the entire dorsal skin excised. Four 8 mm sample strips were cut perpendicular to the wounds, to incorporate both the treated wound and the adjacent vehicle wound. The sample strips were then cut in half, equidistance from the two parallel wounds, yielding a total of four samples per wound, and yielding a compliment vehicle wound for each treated sample. One cephalic and one caudle sample were immediately prepared for histology, with the remaining two strips immediately prepared for tensometry.
Prior to sample loading for testing by tensometry, the underlying subcutaneous fascia was removed to the level of the panniculus carnosum using sharp dissection, following a natural dissection plane. For the day 28 wounds, the 8 mm samples were divided into 4 mm strips prior to loading secondary to slippage issues encountered during the pilot study. Samples were loaded into a Lloyd Instrument materials testing system (model LRX plus, Fareham, Hampshire, UK) with a 50 N load cell, with the wounds perpendicular to the grips and pulled at a rate of 200 mm/min. Wound thickness, just superficial to epithelium and just deep to panniculus carnosum, was measured at the time of testing with digital calipers (Absolute Digimatic Caliper, Mitutoyo, Kawasaki, Kanagawa, Japan). The wound width was measured at a preload of 0.5N by obtaining the correlating still frame image from a hands free mounted video camera (HDR-SR1 Handycam® camcorder, Sony, San Diego, Calif.). These two measurements were then used to calculate the cross sectional area of the wounds and the subsequent tensile strength (N/mm^2).
(§4) A paired student's t-test was used for statistical comparisons between adjacent wounds. A tukey's comparison was used for statistical comparison of wounds between different rats. A Kruskal-Wallis test was used for comparing graded histology. A Chi square was used to determine statistical meaning of epithelial necrosis.

[2] = system: incisional wounds of Sprague-Dawley rats; assay: Incisional wound healing model: histology; format: in vivo; details: for Overall Dermal Collagen Response: histology score; for wounds presenting with some degree of epithelial hyperplasia: control rats 60%
Source text: as §1, §2, §3
Histological samples were fixed in 10% formalin, routinely processed, embedded in paraffin, and sectioned at approximately 5 μm. Cross sections of skin were stained with hematoxylin and eosin (H&E) and Masson's Trichrome using routine methods. All slides were subjectively evaluated on an Olympus BX40 microscope (Olympus America, Center Valley, Pa.) by a board-certified veterinary pathologist blinded to the treatment groups. The following parameters were determined for each sample: (1) collagen density (0=no mature collagen, 1=loose, 2=intermediate, 3=dense); (2) collagen maturity (1=immature, 2=intermediate, 3=mature); (3) amount and type of inflammation present in the dermis (0=none, 1=minimal, 2=mild, 3=moderate, 4=severe); (4) epithelial hyperplasia (0=none, 1=minimal, 2=mild, 3=moderate, 4=severe); (5) amount of epidermal necrosis over wound (0=0%, 1=25%, 2=50%, 3=75%, 4=100). Images were captured using an Olympus BX41 microscope (Olympus America, Center Valley, Pa.) and an Olympus DP71 digital camera (Olympus America, Center Valley, Pa.). Captured images of Masson's Trichrome sections under a 4× objective were uploaded into ImageJ (NIH) in order to calculate the cross sectional area of immature collagen within day 28 wounds. For statistical purposes, samples were averaged to provide a single score in each parameter per wound.
as §4

EFT400-Epidermis = assay: Skin thickness upon addition of PS-1 (EPIDERMFT EFT-400 tissue samples, in vitro); format: cell-based; details: for EFT400-Epidermis thickness, Trial 1: control 61; for EFT400-Epidermis thickness, Trial 3: control 66.22; for EFT400-Epidermis thickness, Trial 2: control 73.73
Description: Tissue samples were received and equilibrated for treatment. Media was retained for enzyme-linked immunosorbent assay (ELISA) using an EPIDERMFT kit, product number EFT-400. On the second day, PS-1 treatment was added to the samples, wherein the media was exchanged with compound in 4 ml. More specifically, three samples were maintained as control samples and included DMSO at a concentration of 62 μm/10 ml, with no added PS-1 treatment, 0.1 μM (0.620/10 ml) was added to three samples, 1 μM (0.620/10 ml) was added to three samples, and 10 μM (0.620/10 ml) was added to three samples.
The samples were left to incubate on days 3-5 and on day 6, the media was exchanged again. On the seventh day, tissue samples were removed and conditioned media was saved for ELISA. The samples were then measured using […].
FIG. 2 illustrates changes in the epidermis thickness versus the amount of PS-1 added to the assays and the supporting data is presented in Table 1 below. […] FIGS. 3 through 5 illustrate the difference in thickness as between the control samples and the 10 μl/ml samples at 10× magnification and 40× magnification.

CC[C@H](C)[C@H](NC(=O)OCc1ccccc1)C(=O)N[C@@H](CCC(=O)OC(C)(C)C)C(=O)N[C@@H](C)C(=O)N[C@H](C=O)CC(C)C [PS-1, Z-Ile-Glu(OBu^t)-Ala-Leu-H] (Cbz-IE(OtBu)AL-aldehyde)
normalization of wound thickness (in words) ([1]; after PS-1 treatment): normalized faster
tensile strength vs untreated wounds (in words) ([1]; day 7 post-wounding, high dose (5% w/w in DMSO), p=0.0223): significantly lower
tensile strength vs untreated wounds (in words) ([1]; day 7 post-wounding, low dose (1% w/w in DMSO), p=0.0121): significantly lower
tensile strength, differences between wounds (in words) ([1]; day 14 post-wounding, all wounds): no significant differences in tensile strength
wound thickness vs untreated control wounds (in words) ([1]; day 28, 1% PI, p=0.057): thinner than untreated control wounds, but just lacked significance
wound thickness vs untreated control wounds (in words) ([1]; day 28, 5% PI, p=0.013): significantly thinner
tensile strength vs untreated wounds (in words) ([1]; day 28 post-wounding, 1% PI): no significant difference
tensile strength vs untreated wounds (in words) ([1]; day 28 post-wounding, 5% PI, p=0.0269): significantly increased tensile strength
Overall Dermal Collagen Response ([2]; PS-1 1% treated wounds, Day 7, control 0.8 ± 0.3): 0.8 ± 0.3
Overall Dermal Collagen Response ([2]; PS-1 1% treated wounds, Day 14, control 1.9 ± 0.3): 2.1 ± 0.3
Overall Dermal Collagen Response ([2]; PS-1 1% treated wounds, Day 28, control 2.6 ± 0.5): 2.9 ± 0.3
Overall Dermal Collagen Response ([2]; PS-1 5% treated wounds, Day 7, control 0.8 ± 0.3): 0.7 ± 0.3
Overall Dermal Collagen Response ([2]; PS-1 5% treated wounds, Day 14, control 1.9 ± 0.3): 2.0 ± 0.0
Overall Dermal Collagen Response ([2]; PS-1 5% treated wounds, Day 28, control 2.6 ± 0.5): 2.8 ± 0.3
accumulation of neutrophils in the dermis (in words) ([2]; day 14, most notable in rats receiving 1% PI): nearly extinct
wounds presenting with some degree of epithelial hyperplasia ([2]; day 28, 1% PI rats): 8 % of wounds
wounds presenting with some degree of epithelial hyperplasia ([2]; day 28, 5% PI rats): 20 % of wounds
macrophage and lymphocyte accumulates (in words) ([2]; day 28, most notably low dose rat wounds, FIG. 20): continued to decline
histology finding in the subcutaneous tissue beneath the panniculus carnosum (in words) ([2]; wounds receiving direct administration of the PI, seemingly dose dependent): foreign body reaction
EFT400-Epidermis thickness, Trial 1 (EFT400-Epidermis; 0.1 μM PS-1): 69.47 microns
EFT400-Epidermis thickness, Trial 3 (EFT400-Epidermis; 0.1 μM PS-1): 78.82 microns
EFT400-Epidermis thickness, Trial 2 (EFT400-Epidermis; 0.1 μM PS-1): 61.85 microns
EFT400-Epidermis thickness, Trial 1 (EFT400-Epidermis; 1 μM PS-1): 59.13 microns
EFT400-Epidermis thickness, Trial 3 (EFT400-Epidermis; 1 μM PS-1): 61.6 microns
EFT400-Epidermis thickness, Trial 2 (EFT400-Epidermis; 1 μM PS-1): 54.09 microns
EFT400-Epidermis thickness, Trial 1 (EFT400-Epidermis; 10 μM PS-1): 106.31 microns
EFT400-Epidermis thickness, Trial 3 (EFT400-Epidermis; 10 μM PS-1): 100.16 microns
EFT400-Epidermis thickness, Trial 2 (EFT400-Epidermis; 10 μM PS-1): 96.2 microns
thickness of the resultant epidermis in vitro (in words) (EFT400-Epidermis; addition of 10 μm, compared with the other samples): relatively significant increase in the thickness
stratum granulosum formation (in words) (EFT400-Epidermis; treated samples vs control samples, FIGS. 3-5): relatively well formed stratum granulosum; also recorded: relatively better developed stratum granulosum

Source: patent US20110009332A1, “Therapeutic Treatment Of Wounds” (SOUTHWEST RESEARCH INSTITUTE, priority 2009, published 2011)
